{"source": "paper PMC10644720", "about": "(Frontiers in Pharmacology, 2023)", "key": {"[1]": {"parameters": "method as in Aziz et al., 2018", "details": "intraperitoneal injection; ref Aziz et al., 2018; cited from earlier work"}, "human washed platelets [2]": {"test_system": "human washed platelets", "assay": "Platelet aggregation assay (Chrono-Log aggregometer)", "format": "cell-based", "details": "for IC50: Homo sapiens, Platelet, 10 min, 10 min incubation at 37°C", "description": "Blood was collected from a median cubital vein using a 3.8% sodium citrate anticoagulation tube with a 1:9 dilution ratio. The platelets were washed using a previously described method with slight modification ([Babur et al., 2020]; [Uphaus et al., 2022]). The blood was centrifuged at room temperature at 300 × g for 10 min to separate platelet-rich plasma (PRP). PRP was added to 50 ng/mL of PGE1 and 5 mM EDTA, centrifuged at 2,000 × g for 2 min at room temperature, and the platelet precipitate was obtained after discarding the supernatant. The modified HEPES-Tyrode’s buffer (20 mM 4-(2-Hydroxyethyl)-1-piperazine ethane sulfonic acid [HEPES], pH 7.3, 129 mM NaCl, 2.9 mM KCl, 12 mM NaHCO3, 0.34 mM Na2HPO4, 20 mM HEPES, 5 mM D-Glucose, 1 mM MgCl2) was used to resuspend the platelets, added with 50 ng/mL PGE1 and 5 mM EDTA, and the platelets were washed by centrifugation at 2,000 ×g for 2 min at room temperature. The washed platelets (WP) were resuspended using modified HEPES-Tyrode’s buffer, and the platelet count was adjusted to 150–200 × 10^9/L.\nPlatelet aggregation and ATP release were detected using the Chrono-Log platelet aggregation instrument (Chrono-Log Corp., Havertown, Pennsylvania, United States), as previously reported ([Babur et al., 2020]). […] In addition, 1 mM CaCl2 and different platelet activators (ADP, collagen, and thrombin; Chrono-Log Corp., Havertown, Pennsylvania, United States; U46619, from Sigma, St. Louis, MO, United States; convulxin, sc-202554 from Santa Cruz Biotechnology, Santa Cruz, CA, United States) were added to each group before the start of the aggregation assay. For the ATP release experiments, the platelets were incubated with 50 ng/mL luciferin and D-luciferase (Cat No. 395; Chrono-Log Corp.) for 2 min before the addition of activators. The platelet aggregation and ATP release curves were traced during experiments."}, "human washed platelets [3]": {"test_system": "human washed platelets", "assay": "Platelet intracellular Ca2+ release assay (Fluo-3AM)", "format": "cell-based", "details": "collagen (10 μg/mL)- and convulxin (5 ng/mL)-induced", "description": "The assay was performed as previously reported with minor modifications ([Arthur et al., 2012]; [Ye et al., 2020]). Briefly, WPs (500 × 10^9/L) were labeled with 5 μM Fluo-3AM (Cat No. IF0150; Solarbio) or 10 μM DCFH-DA (Cat No. D6883; Sigma, St. Louis, MO, United States) at 37°C for 30 min protected from light. […] In addition, 1 mM CaCl2 and collagen or convulxin were added to start the reaction. Ca^2+ release and ROS production were analyzed using a Fluoroskan Ascent fluorometer (Thermo Fisher, Waltham, Massachusetts, US) at excitation (ex)/emission (em) = 490/530 nm, and the curves were plotted in real-time."}, "rhGPVI": {"biological_target": "T1, rhGPVI (Homo sapiens, UniProt Q9HCN6)", "T1 construct": "rhGPVI was expressed and purified according to the method reported in the literature; made in house", "T1 sequence (Q9HCN6 21-203 limits assumed)": "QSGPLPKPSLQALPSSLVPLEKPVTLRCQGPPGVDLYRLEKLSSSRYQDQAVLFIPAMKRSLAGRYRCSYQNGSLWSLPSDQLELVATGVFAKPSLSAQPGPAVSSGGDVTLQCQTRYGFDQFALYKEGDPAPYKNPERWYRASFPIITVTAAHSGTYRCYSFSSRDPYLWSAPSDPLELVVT", "assay": "Solid phase binding assay (rhGPVI binding to immobilized collagen)", "details": "rhGPVI 30 nM; collagen 5 μg/mL coated; read-out: IC50, inhibition of binding of rhGPVI to collagen", "description": "rhGPVI was expressed and purified according to the method reported in the literature ([Horii et al., 2006]). rhGPVI was cross-linked with 10 μg/mL of cross-linking antibody His Tag Horseradish Peroxidase-conjugated Antibody (Cat. MAB050H; R&D Systems, Minneapolis, MN, United States). Solid phase assays were performed based on previously described procedures ([Billiald et al., 2023]). Collagen (5 μg/mL prepared in PBS) was used to coat 96-well plates overnight at 4°C. Non-specific sites were closed by Superblock (Cat. 37580; Thermo Fisher Scientific, Waltham, MA, United States). […] 1-StepTM Ultra TMB-ELISA (Cat. 34022; Thermo Fisher Scientific, Waltham, MA, United States) was developed, and the reaction was stopped with a 2 M sulphuric acid solution. Absorbance values were read at 450 nm. At least three washes were performed with PBS between each of the above steps. Each spot was measured three times."}}, "note": "Like-named read-outs stand apart in the source and are kept apart here.", "data": [{"smiles": "O=c1cc(-c2ccc(O)c(O)c2)oc2cc(O)cc(O)c12", "note": "[Luteolin]", "values": [{"measurement": "LD50", "setting": "[1]", "value": 180, "unit": "mg/kg"}, {"measurement": "effect on platelet aggregation", "setting": "human washed platelets [2]; 25 μM luteolin, ADP (5 μM)-induced", "value": "no significant effect"}, {"measurement": "effect on platelet aggregation", "setting": "human washed platelets [2]; 25 μM luteolin, U46619 (3 μM)-induced", "value": "no significant effect"}, {"measurement": "effect on platelet aggregation", "setting": "human washed platelets [2]; 25 μM luteolin, thrombin (0.05 U/mL)-induced", "value": "no significant effect"}, {"measurement": "effect on platelet aggregation", "setting": "human washed platelets [2]; 100 μM luteolin, U46619-induced", "value": "significantly inhibited"}, {"measurement": "IC50", "setting": "human washed platelets [2]; read-out: IC50, inhibition of platelet aggregation, convulxin (5 ng/mL)-induced", "value": 8.66, "unit": "µM"}, {"measurement": "IC50", "setting": "human washed platelets [2]; collagen (10 μg/mL)-induced, read-out: IC50, inhibition of platelet aggregation", "value": 4.81, "unit": "µM"}, {"measurement": "platelet calcium release", "setting": "human washed platelets [3]", "value": "dose-dependently inhibited"}, {"measurement": "IC50", "setting": "rhGPVI", "value": 5.49, "unit": "µM"}]}]}
